Laboratory results published in patent US20140235548A1, “COMPOSITIONS AND METHODS FOR JAMM PROTEIN INHIBITION” (Cleave Biosciences, Inc., priority 2011, published 2014).
Read-outs that look alike come from different tables or passages of the source. Where a SMILES comes first, the peptide text is derived from it. The star is where a group is joined. Cbz = O=C(OCc1ccccc1)*

Legend:
Rpn11 [1] = target: T1, Rpn11 (Homo sapiens, UniProt O00487); assay: Rpn11 fluorescence polarization assay with 26S proteasome and Ub4-peptide-Oregon Green substrate; type: biochemical
Excerpt: As seens in FIG. 4A) the Rpn11 substrate consisted of six histidine residues followed by four ubiquitin sequences fallowed by the peptide sequence […]. The Oregon Green fluorophore was attached to the cysteine residue via maleimide chemistry. Following cleavage of the substrate by Rpn11, the product […] coupled to Oregon Green was released. The change in molecular weight of Oregon Green containing protein was detected by fluorescence polarization. The Rpn11 reaction can he inhibited with compound 1. In FIG. 4(B) progress curves for product generation by 26S proteasome (which contains Rpn11). Rpn11 cleaves the substrate immediately after the fourth ubiquitin (Ub). 5 nM Ub-Ub-Ub-Ub-peptide-oregon green substrate was incubated with 0.5 nM purified 26S proteasome for 120 min at room temperature. As labeled peptide is liberated, the fluorescence polarization diminishes. The cleavage reaction can be inhibited by the o-phenanthroline. In FIG. 4(C-E) dose-response curve for inhibition of Rpn11 by compound 1 (C), 3-hydroxy-4H-pyran-4-thione (D) or o-phenanthroline (E) were generated by adding varying doses of compound to the reaction mixture. At 120 minutes, fluorescence polarization was measured. Percent activity was calculated based on the amount of enzyme activity observed in the absence of added test agent.
An 8-point compound 001 dose titration curve was performed, by incubating Rpn11-containing 26S proteasome, Rpn11 substrate and compound (dose range 50 μM to 0.1 μM) and monitoring fluorescence polarization as per BIOEXAMPLE 4. Remaining activity as compared to DMSO control (% activity) was calculated and plotted versus compound 1 concentration and the curve was fit to a four-parameter fit model to obtain an IC50 value.

Rpn11 [2] = target: T1, Rpn11; assay: Ub^G76V-GFP proteasome reporter degradation in HeLa cells (Rpn11 activity in cells); type: cell-based; conditions: cycloheximide, 90 min at 37° C., quantitative fluorescence microscopy, read-out: IC50, level of remaining Ub^G76V-GFP
CSN5 [3] = target: T2, CSN5 (Homo sapiens, UniProt Q92905); assay: Csn5 fluorescence polarization assay: release of Nedd8OG from Cul1-Nedd8OG / SCF^Skp2-Nedd8OG by CSN; type: biochemical
[4] = system: neddylated forms of Cullins 1, 2, and 4A; assay: Accumulation of neddylated Cullins 1, 2 and 4A in HEK-293T cells (immunoblot); type: cell-based, human; conditions: 15 min at 37° C.
Protocol: Test compounds include Compound 1 (“Test Compound 1”), Compound 101 (“Test Compound 2”), and MLN4924 (“Comparison Compound”; Sulfamic acid, [(1S,2S,4R)-4-[4-[[(1S)-2,3-dihydro-1H-inden-1-yl]amino]-7H-pyrrolo[2,3-d]pyrimidin-7-yl]-2-hydroxycyclopentyl]methyl ester; CAS Reg. No. 905579-51-3). Human HEK-293T cells were treated with 100 μM compound 1, 100 μM compound 101, 3 μM MLN4924 or 1% DMSO for 15 min. at 37° C. At the end of the incubation, cells were harvested and lysed. All cell lysates were fractionated by SDS-PAGE, proteins were transferred to nitrocellulose, and Cu11, Cu12 and Cu14 was detected by immunoblotting with an antibody that recognizes human Cu11, Cu12 or Cu14. Cu11-N8: human Cu11 modified with Nedd8. Cu12-N8: human Cu12 modified with Nedd8. Cu14-N8: human Cu14 modified with Nedd8.

AMSH-LP = target: T3, AMSH-LP (Homo sapiens, UniProt Q96FJ0); assay: AMSH-LP assay: di-ubiquitin K63 cleavage to mono-ubiquitin (SDS-PAGE, anti-ubiquitin blot); type: biochemical; conditions: AMSH-LP 50 nM, di-ubiquitin K63 1 μM, 20 hours at room temperature; read-out: approximate IC50, mono-ubiquitin product formation
T3 sequence (Q96FJ0 1-436): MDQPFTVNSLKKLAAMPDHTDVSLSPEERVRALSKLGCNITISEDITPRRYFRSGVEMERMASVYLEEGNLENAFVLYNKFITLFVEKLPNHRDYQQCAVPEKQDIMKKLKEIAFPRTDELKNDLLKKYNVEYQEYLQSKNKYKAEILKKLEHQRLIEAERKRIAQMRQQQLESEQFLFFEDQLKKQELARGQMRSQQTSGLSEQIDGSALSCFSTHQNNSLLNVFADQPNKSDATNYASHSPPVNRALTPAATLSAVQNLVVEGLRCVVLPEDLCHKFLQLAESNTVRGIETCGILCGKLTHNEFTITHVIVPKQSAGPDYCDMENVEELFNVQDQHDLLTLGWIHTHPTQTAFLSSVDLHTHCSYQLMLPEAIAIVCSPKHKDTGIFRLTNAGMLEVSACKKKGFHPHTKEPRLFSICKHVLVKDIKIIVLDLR
Excerpt: Formation of product is dependant on the presence of AMSH-LP (lane 1).

CSN5 [5] = target: T2, CSN5; assay: Cell-based Csn5 assay: Cul1 neddylation in HEK-293T cells (immunoblot); set-up: endogenous in cells; host or cells: HEK-293T; conditions: 30 min, increasing concentration
Protocol: Because cullins undergo a dynamic cycling between neddylated and unneddylated forms by the action of NAE1 and Csn5, respectively, a Csn5 inhibitor will block the removal of Nedd8 from cullin resulting in the accumulation of Nedd8-cullin. HEK-293T cells were treated with compound 001 for 30 min., washed with PBS and lysed in gel loading buffer. Clarified cell lysates (40 μg) were electrophoresed, transferred to nitrocellulose and immunoblotted with α-Cu11 or α-actin sera.

[6] = 0.5 nM 26S proteasome, 5 nM substrate, 120 min, room temperature (FIG. 4C-E), read-out: IC50, inhibition of Rpn11
[7] = Bioexample 16 table, read-out: RPN11 IC50
[8] = Bioexample 16 table, read-out: CSN5 IC50

IC50 (Rpn11 [1]; [6]) [nM]	IC50 (Rpn11 [2]) [nM]	IC50 (Rpn11 [1]; [7]) [nM]	IC50 (CSN5 [3]; [8]) [µM]	SMILES	also measured
3300	120	1100		Sc1cccc2cccnc12 [Compound 1, 8-quinolinethiol]	IC50 (CSN5 [3]; Cop9 signalsome, 8-point titration 100 μM to 0.05 μM, four-parameter fit (FIG. 11), read-out: IC50 on Csn5): 6.5 µM; IC50 (CSN5 [3]; purified CSN, fluorescence polarization, dose escalation (FIG. 2B), read-out: IC50, CSN release of Nedd8OG from Cu11-Nedd8OG): 3.8 µM; conversion of Cu11, Cu12 and Cu14 to Nedd8-modified species ([4]; 100 μM): largely modified with Nedd8; IC50 (AMSH-LP): ~1600 nM; shift of Cu11 between unneddylated and neddylated form (CSN5 [5]): shifts the Cu11 population from the undeddylated to the neddylated form
		6100		Cc1ccc2cccc(S)c2n1 [Compound 3, 8-SH-2-Me-quinoline]	
		1300	7.7	Cc1cnc2c(S)cccc2c1 [Compound 4]	
		2500	22.2	Cc1ccnc2c(S)cccc12 [Compound 5]	
		800		Cc1cc(S)c2ncccc2c1 [Compound 7]	

The remaining lines, values behind:

SMILES	IC50 (Rpn11 [1]; [6]) [nM]	IC50 (Rpn11 [2]) [nM]	IC50 (Rpn11 [1]; [7]) [nM]	IC50 (CSN5 [3]; [8]) [µM]	also measured
Oc1coccc1=S [3-hydroxy-4H-pyran-4-thione, reference compound]	600				
Cc1ccc(S)c2ncccc12 [Compound 6]			1100	4.1	
CC(C)C[C@@H](C=O)NC(=O)[C@H](CC(C)C)NC(=O)[C@H](CC(C)C)NC(=O)OCc1ccccc1 [MG132, N-(benzyloxycarbonyl)leucinylleucinylleucinal] (Cbz-Leu-Leu-Leu-aldehyde)		230			
NS(=O)(=O)OC[C@@H]1C[C@@H](n2ccc3c(N[C@H]4CCc5ccccc54)ncnc32)C[C@@H]1O [MLN4924, Sulfamic acid, [(1S,2S,4R)-4-[4-[[(1S)-2,3-dihydro-1H-inden-1-yl]amino]-7H-pyrrolo[2,3-d]pyrimidin-7-yl]-2-hydroxycyclopentyl]methyl ester, reference compound]					conversion of Cu11, Cu12 and Cu14 to Nedd8-modified species ([4]; 3 μM): remain in the non-neddylated form
c1cnc2c(c1)ccc1cccnc12 [o-phenanthroline, reference compound]	158000	590000			
